In US7723295B2, “Peptides and compounds that bind to a receptor” (Ortho-McNeil Pharmaceutical, Inc., priority 2003, dated 2010):

Experiments:
[1] = molecular target: T1, human TPO receptor (Homo sapiens, UniProt P40238); assay: relative luminescent units assay, murine cells expressing human TPO receptor and fos-promoter luciferase reporter; format: cell-based; conditions: FIG. 1; three batches of TPO Compound No. 1 vs one batch of prior art peptide compound
T1 construct: expressed in transfected cells
T1 sequence (P40238 26-635): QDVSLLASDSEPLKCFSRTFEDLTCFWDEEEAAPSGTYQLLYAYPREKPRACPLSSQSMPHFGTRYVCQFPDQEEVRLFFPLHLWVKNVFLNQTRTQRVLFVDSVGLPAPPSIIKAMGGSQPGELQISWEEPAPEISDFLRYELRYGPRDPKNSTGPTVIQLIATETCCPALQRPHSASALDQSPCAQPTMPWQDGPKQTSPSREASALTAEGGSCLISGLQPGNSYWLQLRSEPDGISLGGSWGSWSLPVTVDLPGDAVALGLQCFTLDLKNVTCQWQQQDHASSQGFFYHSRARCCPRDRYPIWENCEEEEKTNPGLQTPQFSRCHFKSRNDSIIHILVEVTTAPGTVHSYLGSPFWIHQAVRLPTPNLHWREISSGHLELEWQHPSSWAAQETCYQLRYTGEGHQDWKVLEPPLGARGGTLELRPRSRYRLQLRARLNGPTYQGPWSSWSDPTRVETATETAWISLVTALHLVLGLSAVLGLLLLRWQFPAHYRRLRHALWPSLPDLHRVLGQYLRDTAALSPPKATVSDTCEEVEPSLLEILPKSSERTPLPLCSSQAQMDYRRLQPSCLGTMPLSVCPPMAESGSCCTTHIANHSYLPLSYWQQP
Excerpt: The assay employs murine cells engineered to stably express the human TPO receptor and a luciferase reporter construct driven by the fos promoter.

[2] = system: platelet counts; assay: Phase I pharmacodynamics, elevation in platelet counts; format: in vivo, human; conditions: for n (>1.5×), subjects with platelet increase / n (>2×), subjects with platelet increase / n (>3×), subjects with platelet increase / n (>4×), subjects with platelet increase: N=6

(H-IEGPTLRQ(2-Nal)LAAR(Sar))2K-NH2 [TPO Compound No. 1]
activity (relative luminescent units), compared between compounds [1]: similar
Pltmax, first value (mean peak platelet count) ([2]; 0.375 μg/kg single i.v.): 315 10^9/L
Pltmax, range in brackets ([2]; 0.375 μg/kg single i.v.): (214-482) 10^9/L
Pltmax, second value after the slash (footnote not given) ([2]; 0.375 μg/kg single i.v.): 309 10^9/L
Pltmax/Plt0, first value (mean) ([2]; 0.375 μg/kg single i.v.): 1.42/1.42
Pltmax/Plt0, range in brackets ([2]; 0.375 μg/kg single i.v.): (1.08-1.81)
Pltmax/Plt0, second value after the slash (footnote not given) ([2]; 0.375 μg/kg single i.v.): 1.42/1.42
n (>1.5×), subjects with platelet increase ([2]; 0.375 μg/kg single i.v.): 3
n (>2×), subjects with platelet increase ([2]; 0.375 μg/kg single i.v.): 0
n (>3×), subjects with platelet increase ([2]; 0.375 μg/kg single i.v.): 0
n (>4×), subjects with platelet increase ([2]; 0.375 μg/kg single i.v.): 0
Pltmax, first value (mean peak platelet count) ([2]; 0.75 μg/kg single i.v.): 347 10^9/L
Pltmax, range in brackets ([2]; 0.75 μg/kg single i.v.): (232-495) 10^9/L
Pltmax, second value after the slash (footnote not given) ([2]; 0.75 μg/kg single i.v.): 335 10^9/L
Pltmax/Plt0, first value (mean) ([2]; 0.75 μg/kg single i.v.): 1.63/1.63
Pltmax/Plt0, range in brackets ([2]; 0.75 μg/kg single i.v.): (1.15-2.12)
Pltmax/Plt0, second value after the slash (footnote not given) ([2]; 0.75 μg/kg single i.v.): 1.63/1.63
n (>1.5×), subjects with platelet increase ([2]; 0.75 μg/kg single i.v.): 3
n (>2×), subjects with platelet increase ([2]; 0.75 μg/kg single i.v.): 1
n (>3×), subjects with platelet increase ([2]; 0.75 μg/kg single i.v.): 0
n (>4×), subjects with platelet increase ([2]; 0.75 μg/kg single i.v.): 0
Pltmax, first value (mean peak platelet count) ([2]; 1.5 μg/kg single i.v.): 430 10^9/L
Pltmax, range in brackets ([2]; 1.5 μg/kg single i.v.): (238-597) 10^9/L
Pltmax, second value after the slash (footnote not given) ([2]; 1.5 μg/kg single i.v.): 458 10^9/L
Pltmax/Plt0, first value (mean) ([2]; 1.5 μg/kg single i.v.): 1.91
Pltmax/Plt0, range in brackets ([2]; 1.5 μg/kg single i.v.): (1.01-2.59)
Pltmax/Plt0, second value after the slash (footnote not given) ([2]; 1.5 μg/kg single i.v.): 2.13
n (>1.5×), subjects with platelet increase ([2]; 1.5 μg/kg single i.v.): 4
n (>2×), subjects with platelet increase ([2]; 1.5 μg/kg single i.v.): 3
n (>3×), subjects with platelet increase ([2]; 1.5 μg/kg single i.v.): 0
n (>4×), subjects with platelet increase ([2]; 1.5 μg/kg single i.v.): 0
Pltmax, first value (mean peak platelet count) ([2]; 2.25 μg/kg single i.v.): 454 10^9/L
Pltmax, range in brackets ([2]; 2.25 μg/kg single i.v.): (254-576) 10^9/L
Pltmax, second value after the slash (footnote not given) ([2]; 2.25 μg/kg single i.v.): 500 10^9/L
Pltmax/Plt0, first value (mean) ([2]; 2.25 μg/kg single i.v.): 2.15
Pltmax/Plt0, range in brackets ([2]; 2.25 μg/kg single i.v.): (1.28-2.98)
Pltmax/Plt0, second value after the slash (footnote not given) ([2]; 2.25 μg/kg single i.v.): 2.33
n (>1.5×), subjects with platelet increase ([2]; 2.25 μg/kg single i.v.): 4
n (>2×), subjects with platelet increase ([2]; 2.25 μg/kg single i.v.): 4
n (>3×), subjects with platelet increase ([2]; 2.25 μg/kg single i.v.): 0
n (>4×), subjects with platelet increase ([2]; 2.25 μg/kg single i.v.): 0
Pltmax, first value (mean peak platelet count) ([2]; 3.0 μg/kg single i.v.): 685 10^9/L
Pltmax, range in brackets ([2]; 3.0 μg/kg single i.v.): (188-979) 10^9/L
Pltmax, second value after the slash (footnote not given) ([2]; 3.0 μg/kg single i.v.): 750 10^9/L
Pltmax/Plt0, first value (mean) ([2]; 3.0 μg/kg single i.v.): 3.21
Pltmax/Plt0, range in brackets ([2]; 3.0 μg/kg single i.v.): (1.25-4.52)
Pltmax/Plt0, second value after the slash (footnote not given) ([2]; 3.0 μg/kg single i.v.): 3.50
n (>1.5×), subjects with platelet increase ([2]; 3.0 μg/kg single i.v.): 5
n (>2×), subjects with platelet increase ([2]; 3.0 μg/kg single i.v.): 5
n (>3×), subjects with platelet increase ([2]; 3.0 μg/kg single i.v.): 4
n (>4×), subjects with platelet increase ([2]; 3.0 μg/kg single i.v.): 1
